From patent publication US20220202783A1, “Use Of ADAM9 Inhibitor As Immunomodulator” (China Medical University, priority 2019, published 2022)

Legend:
[1] = cytotoxicity assay in 293 cells; assay type: cell-based; set-up: key to effect of inhibiting tumor cell growth: “+” represents that the compound has the effect of inhibiting tumor cell growth; settings: 293
[2] = system: kidney cancer cells (293); assay: cytotoxicity assay in 293 cells; assay type: cell-based; set-up: key to effect of inhibiting tumor cell growth: “+” represents that the compound has the effect of inhibiting tumor cell growth; settings: Homo sapiens, HEK293
[3] = cytotoxicity assay in HNOF cells; assay type: cell-based; set-up: key to effect of inhibiting tumor cell growth: “+” represents that the compound has the effect of inhibiting tumor cell growth; settings: human, HNOF cells
[4] = system: HNOF; assay: cytotoxicity assay in HNOF cells; assay type: cell-based; set-up: key to effect of inhibiting tumor cell growth: “+” represents that the compound has the effect of inhibiting tumor cell growth; settings: HNOF
[5] = system: lung cancer cells (A549); assay: cytotoxicity assay in A549 cells; assay type: cell-based; set-up: key to effect of inhibiting tumor cell growth: “+” represents that the compound has the effect of inhibiting tumor cell growth; settings: for IC50: Homo sapiens
Protocol: (§1) Please refer to FIG. 1A, FIG. 1B and Table 2, which show the analysis results of the compound of Formula (I) inhibiting ADAM9 activity. In FIG. 1A, Bm7 lung cancer cells were treated with the derivatives of the compound 6X-0310, and then cultured under anchorage-free culture condition. The expressions of ADAM9 and CDCP1 in Bm7 lung cancer cells were detected by Western blot, in which EF1α is an internal control, and mock represents Bm7 lung cancer cells without treatment. […] In the experiment, the compounds of Formula (I) of Example 1 to Example 32 were further performed cytotoxicity assay to measure the IC50 value of the compounds of Formula (I) of the present disclosure in lung cancer cell lines.

[6] = system: lung cancer cells (H1299); assay: cytotoxicity assay in H1299 cells; assay type: cell-based; set-up: key to effect of inhibiting tumor cell growth: “+” represents that the compound has the effect of inhibiting tumor cell growth; settings: for effect of inhibiting tumor cell growth: H1299; for IC50: Homo sapiens, NCI-H1299
Protocol: as §1

[7] = system: lung cancer cells (TC1); assay: cytotoxicity assay in TC1 cells; assay type: cell-based; set-up: key to effect of inhibiting tumor cell growth: “+” represents that the compound has the effect of inhibiting tumor cell growth; settings: for IC50: TC-1
Protocol: as §1

[8] = system: lung cancer cells (Bm7brmx2-1st); assay: cytotoxicity assay in Bm7brmx2-1st cells; assay type: cell-based; set-up: key to effect of inhibiting tumor cell growth: “+” represents that the compound has the effect of inhibiting tumor cell growth
Protocol: as §1

[9] = system: lung cancer cells (Bm7brmx2-2nd); assay: cytotoxicity assay in Bm7brmx2-2nd cells; assay type: cell-based; set-up: key to effect of inhibiting tumor cell growth: “+” represents that the compound has the effect of inhibiting tumor cell growth
Protocol: as §1

[10] = system: Bm7 lung cancer cells; assay: cytotoxicity assay, FIG. 1B and Table 2 summary; assay type: cell-based
Protocol: as §1

[11] = molecular target: T1, recombinant human ADAM9 (Homo sapiens, UniProt Q13443); assay: ADAM9 enzymatic activity ELISA with fluorescent peptide substrate; assay type: biochemical; settings: different concentrations
T1 construct: purchased R&D system
T1 sequence (Q13443 29-819): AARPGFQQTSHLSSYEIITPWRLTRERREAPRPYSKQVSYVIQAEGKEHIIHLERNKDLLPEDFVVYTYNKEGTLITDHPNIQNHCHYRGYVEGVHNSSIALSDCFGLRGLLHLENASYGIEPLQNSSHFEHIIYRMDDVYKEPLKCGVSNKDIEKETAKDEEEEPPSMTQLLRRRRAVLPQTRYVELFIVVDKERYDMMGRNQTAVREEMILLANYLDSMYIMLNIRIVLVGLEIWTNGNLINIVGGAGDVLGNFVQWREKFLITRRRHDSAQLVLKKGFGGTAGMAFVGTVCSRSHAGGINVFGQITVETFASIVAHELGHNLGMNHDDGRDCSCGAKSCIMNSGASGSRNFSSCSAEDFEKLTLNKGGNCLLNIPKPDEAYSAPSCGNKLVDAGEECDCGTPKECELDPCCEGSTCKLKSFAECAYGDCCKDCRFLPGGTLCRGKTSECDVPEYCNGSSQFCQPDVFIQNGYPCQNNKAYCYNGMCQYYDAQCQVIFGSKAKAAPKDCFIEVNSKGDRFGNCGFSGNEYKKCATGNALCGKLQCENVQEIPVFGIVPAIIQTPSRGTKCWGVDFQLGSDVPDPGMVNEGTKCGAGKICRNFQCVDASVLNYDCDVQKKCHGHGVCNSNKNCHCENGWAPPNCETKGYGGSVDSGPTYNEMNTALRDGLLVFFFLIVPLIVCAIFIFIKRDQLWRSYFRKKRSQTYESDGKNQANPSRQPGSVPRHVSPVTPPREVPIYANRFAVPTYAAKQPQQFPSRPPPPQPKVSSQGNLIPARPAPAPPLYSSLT
Excerpt: To measure the efficacy of the compound of Formula (I) in suppression of ADAM9 enzymatic activity, an ELISA system was established using recombinant human ADAM9 and a fluorescent peptide substrate (R&D system) in the experiment. Broad-spectrum MMP inhibitor-BB-94 was included as a positive control. The compounds of Formula (I) used in this experiment were the compound SW1 and the compound SW2.

[12] = molecular target: ADAM17 (Homo sapiens, UniProt P78536); assay: inhibition of ADAM17 activity; assay type: biochemical; settings: different concentrations
ADAM17, sequence (P78536 215-824, species assumed): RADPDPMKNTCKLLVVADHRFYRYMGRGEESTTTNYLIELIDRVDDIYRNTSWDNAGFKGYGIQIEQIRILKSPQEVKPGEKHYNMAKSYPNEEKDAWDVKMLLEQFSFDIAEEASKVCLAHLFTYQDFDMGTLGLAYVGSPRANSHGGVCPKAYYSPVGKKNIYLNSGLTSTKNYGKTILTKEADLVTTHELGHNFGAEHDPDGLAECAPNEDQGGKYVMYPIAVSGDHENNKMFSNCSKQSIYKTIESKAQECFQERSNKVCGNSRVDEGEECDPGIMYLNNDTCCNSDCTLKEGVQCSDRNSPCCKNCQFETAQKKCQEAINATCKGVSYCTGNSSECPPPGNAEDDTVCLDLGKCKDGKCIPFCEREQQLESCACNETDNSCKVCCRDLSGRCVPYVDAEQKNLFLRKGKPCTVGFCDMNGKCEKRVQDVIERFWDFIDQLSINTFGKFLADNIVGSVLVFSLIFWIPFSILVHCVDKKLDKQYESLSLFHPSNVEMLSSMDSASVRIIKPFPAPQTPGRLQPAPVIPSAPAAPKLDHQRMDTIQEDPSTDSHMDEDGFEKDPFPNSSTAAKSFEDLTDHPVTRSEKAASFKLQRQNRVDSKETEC

[13] = system: leukocytes; assay: anoikis in anchorage-free culture, leukocytes; assay type: cell-based; settings: Leukocyte, read-out: IC50 value for anoikis (anchorage-free induced apoptosis)
Protocol: To ensure the compound SW1 and the compound SW2 in blocking anoikis-resistance of cancer cells, the IC50 value (unit is μM) of the compound SW1 and the compound SW2 for anoikis (anchorage-free induced apoptosis) in lung cancer brain metastatic cell line-Bm7brmx2, breast cancer brain metastatic cell line-MDA-231 brm and leukocytes in anchorage-free culture conditions were determined.

[14] = system: control Bm7 lung cancer cells; assay: colony-forming assay, Bm7; assay type: cell-based; settings: 20 μM, control Bm7 lung cancer cells (shGFP)
Protocol: (§2) To further test the planting efficiency of tumor cells treated with the compound SW1 and the compound SW2, in the experiment, control Bm7 lung cancer cells (treated with shGFP) and ADAM9 KO Bm7 lung cancer cells (treated with shADAM9) were treated with 20 μM of the compound SW1 or the compound SW2 respectively, and TC1-wild-type (WT) lung cancer cells and TC1-ADAM9 KO lung cancer cells were treated with 10 μM of the compound SW1 or the compound SW2 respectively. Then colony-forming assay was used to confirm the planting efficiency of each test group. Please refer to FIGS. 2D and 2E, wherein mock represents the tumor cell lines without treatment of the compound SW1 or the compound SW2. Representative images of colony-forming assay are shown at the bottom, and data are means±SD of 6 separate wells.

[15] = system: TC1-WT lung cancer cells; assay: colony-forming assay, TC1; assay type: cell-based; settings: 10 μM
Protocol: as §2

[16] = system: TC1-WT lung cancer cells; assay: Annexin V and PI staining for cell apoptosis; assay type: cell-based; settings: 24 hours, compared with TC1-ADAM9 KO lung cancer cells
Protocol: In the experiment, TC1-WT lung cancer cells and TC1-ADAM9 KO lung cancer cells were further treated with the compound SW1 or the compound SW2 for 24 hours, and then stained with Annexin V and PI to detect cell apoptosis. Please refer to FIG. 2F, where the percentage of Annexin V+ cells (apoptotic cells) is the statistical result from three independent experiments, with mean±SD.

[17] = system: Panc-1; assay: cytotoxicity on pancreatic cancer cells, Panc-1; assay type: cell-based; settings: Homo sapiens
Protocol: (§3) In addition, the IC50 values (unit is μM) of the compound SW1 and the compound SW2 on pancreatic cancer cells were measured in the experiment.

[18] = system: Pan18-GFP-Luc; assay: cytotoxicity on pancreatic cancer cells, Pan18-GFP-Luc; assay type: cell-based; settings: Pancreatic cancer cell
Protocol: as §3

[19] = system: Su86-86-GFP-Luc; assay: cytotoxicity on pancreatic cancer cells, Su86-86-GFP-Luc; assay type: cell-based; settings: Pancreatic cancer cell
Protocol: as §3

[20] = system: HPAC-GFP-Luc; assay: cytotoxicity on pancreatic cancer cells, HPAC-GFP-Luc; assay type: cell-based; settings: Pancreatic cancer cell
Protocol: as §3

[21] = system: Bm7 lung cancer cells; assay: tumor sphere formation; assay type: cell-based; settings: 25 μM, 12 hours
Protocol: In the experiment, the Bm7 lung cancer cells were treated with 25 μM of the compound SW1 or the compound SW2 for 12 hours, and the number of tumor spheres formed was determined. Please refer to FIG. 2H, where mock represents Bm7 lung cancer cells without treatment.

Row | inhibition of ADAM17 activity [12] | IC50 [13] | SMILES | effect of inhibiting tumor cell growth [1] | IC50 [2] | IC50 [3] | effect of inhibiting tumor cell growth [4] | effect of inhibiting tumor cell growth [5] | IC50 [5] | effect of inhibiting tumor cell growth [6] | IC50 [6] | effect of inhibiting tumor cell growth [7] | IC50 [7] | IC50 [8] | effect of inhibiting tumor cell growth [8] | IC50 [9] | effect of inhibiting tumor cell growth [9] | tumor cell cytotoxicity compared with the core structure compound 6X-0310 [10] | inhibition of ADAM9 activity [11] | planting efficiency, colony-forming assay [14] | planting efficiency, colony-forming assay [15] | other results
1 | no inhibitory effects | > 200 µM | O=C1c2ccccc2C(=O)N1CCc1csc(Nc2nc(CCN3C(=O)c4ccccc4C3=O)cs2)n1 [SW1] | + | 81.3 µM | 97.8 µM | + | + | 434 µM | + | 76.9 µM | + | 80.4 µM | 40.4 µM | + | 43.5 µM | + | stronger tumor cell cytotoxicity | decrease ADAM9 activity to a similar extent in a dose-dependent manner | greatly reduce the planting efficiency | greatly reduce the planting efficiency | cell apoptosis (Annexin V+ cells) [16]: induce cell apoptosis; IC50 [17]: 424 µM; IC50 [18]: 0.3 µM; IC50 [19]: 59.2 µM; IC50 [20]: 126 µM; number of tumor spheres formed [21]: greatly reduce the number of tumor spheres
2 | no inhibitory effects | 76 µM | O=C(Nc1nc(CCN2C(=O)c3ccccc3C2=O)cs1)c1cc2ccccc2s1 [SW2] | + | 15 µM | 61.9 µM | + | + | 458 µM | + | 32 µM | + | 64.2 µM | 44.3 µM | + | 45.1 µM | + | stronger tumor cell cytotoxicity | decrease ADAM9 activity to a similar extent in a dose-dependent manner | greatly reduce the planting efficiency | greatly reduce the planting efficiency | cell apoptosis (Annexin V+ cells) [16]: induce cell apoptosis; IC50 [17]: 34.2 µM; IC50 [18]: 112 µM; IC50 [19]: 66.8 µM; IC50 [20]: 29.3 µM; number of tumor spheres formed [21]: greatly reduce the number of tumor spheres
